According to patent US4647571A, “Cysteine delivery composition” (Cornell Research Foundation, priority 1982, dated 1987):
Values joined by “and” are separate entries in the source; they are usually repeats but may differ in a detail not shown here. Equal values may be shown once. Each block holds one molecule with its values, some of them ahead of it.

Columns and labels:
5-oxo-L-prolinase [1] = target: T1, 5-oxo-L-prolinase (Rattus norvegicus, UniProt P97608); test: Action of 5-oxo-L-prolinase on substrates (products formed); format: biochemical; details: for Products Formed: ADP: 5 mM ATP, 30 min at 37° C., pyruvate kinase-lactate dehydrogenase coupled assay; for Reaction on incubation with 5-oxo-L-prolinase: in the presence of ATP
T1 construct: 5-Oxo-L-prolinase was isolated from rat kidney and freed of 5-oxoproline by gel filtration; from tissue; host or cells: rat kidney
T1 sequence (P97608 1-1288): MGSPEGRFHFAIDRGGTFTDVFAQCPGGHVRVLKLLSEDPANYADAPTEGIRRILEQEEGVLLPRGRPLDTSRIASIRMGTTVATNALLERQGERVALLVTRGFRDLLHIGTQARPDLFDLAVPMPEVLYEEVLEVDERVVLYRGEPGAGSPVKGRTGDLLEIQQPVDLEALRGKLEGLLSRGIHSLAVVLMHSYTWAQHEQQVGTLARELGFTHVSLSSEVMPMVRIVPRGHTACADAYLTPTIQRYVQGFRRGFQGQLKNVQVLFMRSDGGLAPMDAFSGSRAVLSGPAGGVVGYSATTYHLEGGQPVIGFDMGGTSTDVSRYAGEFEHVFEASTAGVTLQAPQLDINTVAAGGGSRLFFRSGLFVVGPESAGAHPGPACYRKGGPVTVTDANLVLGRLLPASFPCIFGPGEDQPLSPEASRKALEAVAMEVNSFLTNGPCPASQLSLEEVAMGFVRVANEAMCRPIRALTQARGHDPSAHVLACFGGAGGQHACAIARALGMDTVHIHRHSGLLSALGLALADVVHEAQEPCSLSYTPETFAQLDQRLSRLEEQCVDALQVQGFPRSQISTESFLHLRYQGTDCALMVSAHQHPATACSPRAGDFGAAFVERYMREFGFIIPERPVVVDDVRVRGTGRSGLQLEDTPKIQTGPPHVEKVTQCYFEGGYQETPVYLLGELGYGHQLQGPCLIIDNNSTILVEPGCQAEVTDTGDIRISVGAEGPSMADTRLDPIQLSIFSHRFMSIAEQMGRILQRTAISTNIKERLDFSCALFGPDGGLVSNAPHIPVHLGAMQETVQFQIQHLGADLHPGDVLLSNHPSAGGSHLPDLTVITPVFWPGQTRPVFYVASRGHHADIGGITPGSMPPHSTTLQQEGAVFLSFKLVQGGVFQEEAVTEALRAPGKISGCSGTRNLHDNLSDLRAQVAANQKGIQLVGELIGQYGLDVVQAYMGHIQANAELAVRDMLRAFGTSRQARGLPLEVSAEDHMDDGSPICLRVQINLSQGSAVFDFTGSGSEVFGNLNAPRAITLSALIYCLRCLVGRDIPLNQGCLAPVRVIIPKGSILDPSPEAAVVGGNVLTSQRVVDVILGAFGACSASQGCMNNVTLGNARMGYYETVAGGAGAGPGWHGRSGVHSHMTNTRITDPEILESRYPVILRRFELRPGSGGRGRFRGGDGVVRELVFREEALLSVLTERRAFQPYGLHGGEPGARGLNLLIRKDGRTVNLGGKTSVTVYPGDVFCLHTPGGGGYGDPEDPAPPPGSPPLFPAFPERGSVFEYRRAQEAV
Experimental: (§1) In the experiments the reaction mixtures were made up to contain (final volume 0.5 ml) 100 mM Na Hepes (Na salt of N-2-hydroxyethylpiperizine-N'-2ethanesulfonic acid) buffer (pH 8.0), 150 mM KCl, 8 mM MgCl2, 2 mM phosphoenolpyruvate, 5 mM ATP (adenosine triphosphate), pyruvate kinase, in excess, 20 micrograms of 5-oxoprolinase, and the substrate as indicated.
(§2) The L-and D-isomers of 2-oxothiazolidine-4-carboxylate were synthesized by the method set out in Kaneko et al, Bull, Chem. Soc. (Japan) vol. 37, pp. 242-4 (1964) as modified by the method of Shah et al, Cancer Research vol. 39, pp. 3942-7 (1979). 5-Oxo-L-prolinase was isolated from rat kidney and freed of 5-oxoproline by gel filtration. Other chemicals and materials were obtained commercially.
(§3) After incubation ofr 30 min. at 37° C., the reaction mixtures were treated with 0.1 volume of 1 M HCl, and placed at 0° C. for 5 min.; and an equivalent volume of 1 M 2-amino-2-hydroxylmethyl-1,3,-propanediol was added. Portions were analyzed for amino acids by use of a Durrum Model 500 amino acid analyzer. Cysteine was also determined in some experiments by reaction with 5,5'-dithiobis (2-initrobenzoate) (DTNB).

5-oxo-L-prolinase [2] = target: T1, 5-oxo-L-prolinase; test: Inhibition of utilization of 5-oxo-L-proline (glutamate formation) by the purified enzyme; format: biochemical; details: 1 mM 5-oxo-L-proline
Experimental: as §1, §2, §3
Energy for the reaction is supplied by the cleavage of ATP. […] The ratio of ADP to cysteine produced increased with time due undoubtedly to the loss of cysteine due to oxidation.

hepatic glutathione = test: Hepatic glutathione level after injection; format: in vivo, mice; details: for hepatic glutathione level relative to controls: mice fasted overnight, 6.5 mmol/kilo intraperitoneally (D-isomer: equivalent doses)
Experimental: The effect of injecting mice with L-2-oxothiazolidine-4-carboxylate on the level of hepatic gluathione was studies. […] The maximal effect was observed about 4 hours after injection. […] These findings are indicative of in vivo formation of cysteine after administration of L-2- oxothiazolidine-4-carboxylate.
Mice fasted overnight were injected intraperitoneally with NaCl (controls; dashed line) or with Na L-2-oxothiazolidine-4-carboxylate (6.5 mmol/kilo). At intervals, the mice were sacrificed and the excised liver was homogenized in 5 volumes of 1% picric acid. After centrifugation, the protein-free supernatant solutions were analyzed for glutathione by the method of Tietze, Anal. Biochem 27, 502-22(1969). Analyses were carried out in duplicate. In a number of instances, these values were checked by the 2-vinylpyridine procedure of Griffith, Anal. Biochem. 106; 207-12(1980); good agreement between the two methods was observed. In the figure, the points are mean values and the bars indicate the average deviation from the mean. The numbers in parentheses give the number of animals used. The value for the controls was 4.40±0.9 umol/g.

liver glutathione = test: Hepatic glutathione in mice depleted of glutathione (acetoaminophenol); format: in vivo
Experimental: Administration of this compound therefore provides a way of getting cysteine into cells. One cannot give cysteine itself without complications since this amino acid is toxic extracellularly. However, when the L-oxothiazolidine compound is injected it enters the cell where it is split giving rise to cysteine within the cell. In a number of clinical situations, for example, after poisoning with excessive pain-killing drugs, e.g., those containing active ingredients known as N-acetyl-para-aminophenol, paracetamol, and acetaminophen, the liver glutathione levels decrease markedly. When cysteine is supplied to liver cells, additional glutathione can be synthesized and thus serve usefully in detoxifying the offending drug. Therefore, L-2-oxothiazolidine-4-carboxylate serves as an intracellular delivery system for cysteine and has potential as a therapeutic agent in situations in which there is depletion of liver glutathione. After acetoaminophenol is given to experimental animals such as mice, the liver glutathione declines rapidly because it is extensively utilized by reaction with the drug. […] For human treatment the L-isomer, preferably in the form of its neutral salt is administered directly into the gastro-intestinal tract or introduced intravenously.

5-oxoproline metabolism [3] = test: In vivo inhibition of 5-oxoproline metabolism (respiratory 14CO2 after 5-oxo-L-[14C]proline); design: species or system mice
Experimental: (§4) The in vitro results showing that L-2-oxothiazolidine-4-carboxylate inhibits utilization of 5-oxoproline were confirmed by in vivo experiments. In the latter, animals were injected with 5-oxo-L-[^14 C] proline and the respiratory [^14 CO2 ] produced was collected and measured for several hours. […] However, L-2- oxothiazolidine-4-carboxylate is a much more efficient inhibitor.
(§5) FIG. 3depicts the inhibition of 5-oxoproline metabolism by L-2- oxothiazolidine-4-carboxylate. Mice fasted overnight were injected intraperitoneally with NaCl (Curve 1; open symbols; controls) or with Na L-2-oxothiazolidine-4-carboxylate (2.5 mmol/kilo) (Curve 2; closed symbols). After 10 min., the mice were injected subcutaneously with 5-oxo-L-[^14 C] proline (A) or with L-[^14 C] glutamate (B) (0.02 mmol; 1.1×10^6 cpm). The mice were then placed in metabolic chambers and the respiratory CO2 was collected in ethanolamine/methanol, 1:4 (vol/vol). In A, each curve represents the results on 3 animals; the points are mean values and the bars represent standard deviations from the mean. In B, each curve represents the average of closely-agreeing results obtained from 2 animals.

tissue cysteine = test: Tissue/liver cysteine after administration; format: in vivo, mice
metabolism of glutamate = test: In vivo metabolism of L-[14C]glutamate (respiratory 14CO2); details: mice, 2.5 mmol/kilo intraperitoneally
Experimental: as §4, §5

5-oxoproline metabolism [4] = details: previous studies of the inventors; cited from earlier work

- calculated Vmax value (5-oxo-L-prolinase [1]; compared with the L-isomer): higher than that found for the L-isomer
- Products Formed: ADP (5-oxo-L-prolinase [1]; substrate 2 mM): 924 nmol
- Products Formed: Amino Acid (as glutamate) (5-oxo-L-prolinase [1]; substrate 2 mM, as glutamate): 916 nmol
SMILES: O=C1CC[C@@H](C(=O)O)N1 [5-Oxo-L-proline, 5-oxo-L-proline]

- inhibition at 1000 µM (5-oxo-L-prolinase [2]; inhibitor 1 mM): 73%
- inhibition at 5000 µM (5-oxo-L-prolinase [2]; inhibitor 5 mM): 92%
- inhibition at 10000 µM (5-oxo-L-prolinase [2]; inhibitor 10 mM): 97%
- Reaction on incubation with 5-oxo-L-prolinase (5-oxo-L-prolinase [1]): rapid formation of ADP and cysteine
- Products Formed: ADP (5-oxo-L-prolinase [1]; substrate 2 mM): 478 nmol and 499 nmol
- Products Formed: Amino Acid (5-oxo-L-prolinase [1]; substrate 2 mM, after conversion to cystine): 463 nmol
- Products Formed: Amino Acid (5-oxo-L-prolinase [1]; substrate 2 mM, determined after reduction with KBH4 and reaction with iodoacetamide): 466 nmol
SMILES: O=C1N[C@H](C(=O)O)CS1 [L-2-oxothiazolidine-4-carboxylate]
- hepatic glutathione level relative to controls (hepatic glutathione): about twice those of the controls
- time of maximal effect on hepatic glutathione after injection (hepatic glutathione; mice, 6.5 mmol/kilo intraperitoneally): about 4 hours
- liver glutathione after acetoaminophenol (liver glutathione; mice, given even two hours after the drug): an increase in liver glutathione occurs
- hepatic glutathione levels in mice depleted of hepatic glutathione (liver glutathione; mouse, in vivo): restoration of normal hepatic glutathione levels
- formation of respiratory 14CO2 from 5-oxo-L-[14C]proline (5-oxoproline metabolism [3]; mice, 2.5 mmol/kilo intraperitoneally 10 min before label): marked decrease
- in vivo inhibitory activity relative to L-2-imidazolidone-4-carboxylate (5-oxoproline metabolism [3]; on a molar basis): at least four times more active
- injected 5-oxo-L-[14C]proline dose excreted in urine (5-oxoproline metabolism [3]; treated animals, none found in the urine of the controls): about 16 % of the injected dose
- cysteine content of tissues (tissue cysteine; administration to animals): increase in the cysteine content of tissues, especially the liver
- free cysteine in acid extracts of the livers (tissue cysteine; amino acid analysis after dithiothreitol reduction and 2-vinylpyridine derivatization): No free cysteine was detected
- apparent Km value (5-oxo-L-prolinase [1]; compared with the natural substrate): somewhat lower than that found for the natural substrate
- effect on the metabolism of glutamate (metabolism of glutamate): does not have a significant effect

- Products Formed: ADP (5-oxo-L-prolinase [1]; substrate 2 mM): 930 nmol
- Products Formed: Amino Acid (5-oxo-L-prolinase [1]; substrate 2 mM, footnote: less than 5 nmol): 0 nmol
SMILES: O=C1NC[C@@H](C(=O)O)N1 [L-2-imidazolidone-4-carboxylate]
- in vivo metabolism of 5-oxoproline (5-oxoproline metabolism [4]): markedly inhibits

- inhibition of glutamate formation (in words) (5-oxo-L-prolinase [2]; same conditions): did not inhibit glutamate formation
- Reaction on incubation with 5-oxo-L-prolinase (5-oxo-L-prolinase [1]): No reaction was observed
- Products Formed: ADP (5-oxo-L-prolinase [1]; substrate 5 mM): 96 nmol
- Products Formed: Amino Acid (5-oxo-L-prolinase [1]; substrate 5 mM, after reduction with KBH4 and reaction with iodoacetamide, footnote: less than 20 nmol): 0 nmol
SMILES: O=C1N[C@@H](C(=O)O)CS1 [D-2-oxothiazolidine-4-carboxylate]
- hepatic glutathione level relative to controls (hepatic glutathione): No such stimulation was observed
